Results filed as inconclusive are left out. Active and inactive are the calls of the source. No rule for the calls is given here.
Tested on: non-replicating M. tuberculosis, luciferase reporter luminescence
Assay: inhibitors of non-replicating M. tuberculosis, dose response, luciferase, dry powder (AID 743183)
Settings: not given

Structure (SMILES)	AC90 [µM]
O=C(COc1cccc2ccccc12)Nc1nc2ccccc2[nH]1	6.61
Cc1cc(NC(=O)C2CCCCC2)n(-c2nc3ccccc3[nH]2)n1	12.9
CCCCN(C/C=C/c1ccccc1OC)Cc1ccccc1	24.6
O=C(Nc1nc2ccccc2[nH]1)c1cccc(Cl)c1	4.96
Brc1c(-c2ccc3c(c2)OCO3)nc2ncccn12	12.9
Clc1cccc(-c2ccc(CNCc3ccccn3)o2)c1	16.3
CCOC(=O)COc1ccc2c(c1)C(=O)CC1(CCCCC1)O2	5.77
O=C(CCN1CCC(c2cccs2)=N1)c1cccs1	14.3
Cc1cccc(Cn2ccc(NC(=O)c3ccc4c(c3)OCO4)n2)c1	9.73
NC1CCN(c2c(F)cc3c(=O)c(C(=O)O)cn(C4CC4)c3c2Cl)C1 (configuration not stated)	2.04
Cc1nnc(NC(=O)c2ccc3ccccc3c2)o1	0.372
CCOC(=O)c1cc(-c2csc(COc3ccccc3)n2)on1	6.95
O=C(CCc1ccccc1)NC1C2CC3CC(C2)CC1C3 (configuration not stated)	10.3
NC(=O)C1(N2CCCCC2)CCN(C2CC(=O)N(CCc3ccccc3)C2=O)CC1 (configuration not stated)	22.3
Cc1cccc(C)c1N1C(=O)CC(N2CCSCC2)C1=O (configuration not stated)	4.7
CCOC(=O)c1cc(-c2csc(COc3ccccc3Cl)n2)on1	4.52
Clc1cccc(CNCCNCc2cccc(Cl)c2)c1	19.4

Structure (SMILES)	AC90 [µM]
CCc1ccc(OCCCC(=O)NCc2ccco2)cc1	31.8
COC(=O)COc1cccc(NC(=O)c2ccc(Cl)cc2)c1	11.7
CS(=O)(=O)Cc1nc2ccccc2oc1=O	38.6
CCOC(=O)COc1ccc(C(=O)NC2CCCCC2)cc1	8.93
O=C(NCc1cccs1)c1ccc(Br)o1	5.8
Fc1ccc(-c2ccc(CNCc3ccccn3)o2)cc1Cl	13.7
O=C(NC1CC2CCC1C2)C1COc2ccccc2O1 (configuration not stated)	1.39
O=C(COc1c(Br)cc(Br)c2cccnc12)N1CCCCC1	7.78
COC(=O)COc1ccc2c(=O)c(Oc3ccccc3)c(C)oc2c1	2.94
CCOCCOC(=O)COc1ccc2c(-c3ccccc3)cc(=O)oc2c1	8.82
C=CCn1c(NC(=O)c2ccccc2)nc2ccccc21	7.69
CCOC(=O)COc1ccc2c(=O)c(-c3ccccc3)coc2c1	3.65
c1ccc(Nc2nc(-c3ccccn3)cs2)cc1	1.95
CCOC(=O)COc1ccc2c(=O)cc(-c3ccccc3)oc2c1	2.9
Cc1cc(C)n2nc(S(=O)(=O)Nc3c(Cl)cccc3Cl)nc2n1	5.45
CCCOC(=O)c1ccc(NC(=O)c2ccc(Br)o2)cc1	7.14

Tested on: not listed separately
Assay: as above
Settings: non-replicating M. tuberculosis, luciferase reporter luminescence; at 38 µM (top of the series)

Structure (SMILES)	activity change, negative = inhibition
N#Cc1nc(-c2cccs2)oc1NCCc1ccccc1	-87.4% (inactive)
CCOC(=O)CNC(=O)N1c2ccccc2Sc2ccccc21	-75.4% (inactive)
O=C(OCc1ccc(Cl)c(Cl)c1)c1ccccn1	-46.6% (inactive)
Cc1ccc(C)c(-c2csc(NC(=O)c3cnccn3)n2)c1	-66.6% (inactive)

Reference: PubChem BioAssay AID743183 (Broad Institute, 2013)
